Data: patent publication US8791148B2, “Substituted benzimidazolone derivatives, medicaments comprising them and their use” (AbbVie Deutschland GmbH & Co. KG, priority 2006, dated 2014)

These compounds were tested against T1, human vasopressin V1b receptor (Homo sapiens, UniProt P47901) (assay: Vasopressin V1b receptor binding assay). Details: membranes from CHO-K1 cells with stably expressed human V1b receptors; displacement of 1.5 nM 3H-AVP; read-out: V1b receptor affinity (affinity constant Ki).
T1 construct: expressed in transfected cells; host or cells: CHO-K1 (cell line hV1b-3H2_CHO), membrane preparation
T1 sequence (P47901 1-424): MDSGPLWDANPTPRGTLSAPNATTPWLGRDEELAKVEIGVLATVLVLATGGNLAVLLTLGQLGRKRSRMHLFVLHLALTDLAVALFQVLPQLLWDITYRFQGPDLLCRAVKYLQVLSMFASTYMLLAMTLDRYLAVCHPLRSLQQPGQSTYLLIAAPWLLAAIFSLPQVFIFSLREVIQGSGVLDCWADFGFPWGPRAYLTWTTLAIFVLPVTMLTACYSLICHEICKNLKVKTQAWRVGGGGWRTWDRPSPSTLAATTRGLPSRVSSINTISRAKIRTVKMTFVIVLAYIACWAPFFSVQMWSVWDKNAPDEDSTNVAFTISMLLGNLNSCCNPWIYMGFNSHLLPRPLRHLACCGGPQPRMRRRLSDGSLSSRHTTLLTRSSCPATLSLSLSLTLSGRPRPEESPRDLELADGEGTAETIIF
In short: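 Membranes expressing human V1b receptor were incubated with radioligand and test compound (2% DMSO final) in 50 mM Tris, 10 mM MgCl2, 0.1% BSA, pH 7.4, for 60 min at room temperature, in triplicate. 1 uM AVP defined nonspecific binding. Bound ligand was separated by filtration and counted by scintillation; Ki came from nonlinear regression.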

Row | Ki [µM] | Compound
1 | 0.5 to 10 | COc1ccc(S(=O)(=O)n2c(=O)n(C(C(=O)N3CC[C@@H](N4CCN(Cc5ccccc5)CC4)C3)c3ccccc3)c3cc(C#N)ccc32)cc1 (stereo partly drawn) [Example 144, 3-{2-[(R)-3-(4-Benzylpiperazin-1-yl)-pyrrolidin-1-yl]-2-oxo-1-phenylethyl}-1-(4-methoxybenzenesulfonyl)-2-oxo-2,3-dihydro-1H-benzimidazole-5-carbonitrile]
2 | < 0.1 | COc1ccc(S(=O)(=O)n2c(=O)n(C(C(=O)N3CC[C@@H](N4CCNCC4)C3)c3ccccc3)c3cc(Cl)ccc32)cc1 (stereo partly drawn) [Example 145, 5-Chloro-1-(4-methoxybenzenesulfonyl)-3-[2-oxo-1-phenyl-2-((R)-3-piperazin-1-yl-pyrrolidin-1-yl)-ethyl]-1,3-dihydrobenzimidazol-2-one]
3 | < 0.1 | COc1ccc(S(=O)(=O)n2c(=O)n(C(C(=O)N3CCC(N4CCNCC4)C3)c3ccccc3)c3cc(Cl)ccc32)cc1 (stereo not drawn) [Example 146, 5-Chloro-1-(4-methoxybenzenesulfonyl)-3-[2-oxo-1-phenyl-2-(3-piperazin-1-ylpyrrolidin-1-yl)-ethyl]-1,3-dihydrobenzimidazol-2-one]
4 | < 0.1 | COc1ccc(S(=O)(=O)n2c(=O)n(C(C(=O)N3CCCC(N4CCNCC4)C3)c3ccccc3)c3cc(Cl)ccc32)cc1 (stereo not drawn) [Example 147, 5-Chloro-1-(4-methoxybenzenesulfonyl)-3-[2-oxo-1-phenyl-2-(3-piperazin-1-ylpiperidin-1-yl)ethyl]-1,3-dihydrobenzimidazol-2-one]
5 | 0.1 to 0.5 | COc1ccc(S(=O)(=O)n2c(=O)n(C(C(=O)N3CC(N4CCNCC4)C3)c3ccccc3)c3cc(Cl)ccc32)cc1 (stereo not drawn) [Example 148, 5-Chloro-1-(4-methoxybenzenesulfonyl)-3-[2-oxo-1-phenyl-2-(3-piperazin-1-ylazetidin-1-yl)ethyl]-1,3-dihydrobenzimidazol-2-one]
6 | < 0.1 | COc1ccc(S(=O)(=O)n2c(=O)n(C(C(=O)N3CC[C@H](N4CCNCC4)C3)c3ccccc3)c3cc(Cl)ccc32)cc1 (stereo partly drawn) [Example 149, 5-Chloro-1-(4-methoxybenzenesulfonyl)-3-[2-oxo-1-phenyl-2-((S)-3-piperazin-1-ylpyrrolidin-1-yl)ethyl]-1,3-dihydrobenzimidazol-2-one]
7 | < 0.1 | COc1ccc(S(=O)(=O)n2c(=O)n(C(C(=O)N3CC[C@H](N4CCNCC4)C3)c3ccccc3)c3cc(C#N)ccc32)cc1 (stereo partly drawn) [Example 150, 1-(4-Methoxybenzenesulfonyl)-2-oxo-3-[2-oxo-1-phenyl-2-((S)-3-piperazin-1-ylpyrrolidin-1-yl)ethyl]-2,3-dihydro-1H-benzimidazole-5-carbonitrile]
8 | < 0.1 | COc1ccc(S(=O)(=O)n2c(=O)n(C(C(=O)N3CC[C@@H](N4CCNCC4)C3)c3ccccc3)c3cc(C#N)ccc32)cc1 (stereo partly drawn) [Example 151, 1-(4-Methoxybenzenesulfonyl)-2-oxo-3-[2-oxo-1-phenyl-2-((R)-3-piperazin-1-ylpyrrolidin-1-yl)ethyl]-2,3-dihydro-1H-benzimidazole-5-carbonitrile]
9 | < 0.1 | CCN1CCN([C@H]2CCN(C(=O)C(c3ccccc3)n3c(=O)n(S(=O)(=O)c4ccc(OC)cc4)c4ccc(Cl)cc43)C2)CC1 (stereo partly drawn) [Example 152, 5-Chloro-3-{2-[(S)-3-(4-ethylpiperazin-1-yl)pyrrolidin-1-yl]-2-oxo-1-phenylethyl}-1-(4-methoxybenzenesulfonyl)-1,3-dihydrobenzimidazol-2-one]

Further lines, the compound ahead of its results:

Row | Compound | Ki [µM]
10 | COc1ccc(S(=O)(=O)n2c(=O)n(C(C(=O)NCCCN3CCCC3=O)c3ccccc3)c3cc(Cl)ccc32)cc1 (stereo not drawn) [Example 125, 2-[6-Chloro-3-(4-methoxybenzenesulfonyl)-2-oxo-2,3-dihydrobenzimidazol-1-yl]-N-[3-(2-oxopyrrolidin-1-yl)propyl]-2-phenylacetamide] | 0.5 to 10
11 | COc1ccc(S(=O)(=O)n2c(=O)n(C(C(=O)N3CCCN(C)CC3)c3ccccc3)c3cc(Cl)ccc32)cc1 (stereo not drawn) [Example 126, 5-Chloro-1-(4-methoxybenzenesulfonyl)-3-[2-(4-methyl-[1,4]diazepan-1-yl)-2-oxo-1-phenylethyl]-1,3-dihydrobenzoimidazol-2-one] | 0.1 to 0.5
12 | COc1ccc(S(=O)(=O)n2c(=O)n(C(C(=O)N3CCN(C4CCN(C(=O)OC(C)(C)C)CC4)CC3)c3ccccc3)c3cc(Cl)ccc32)cc1 (stereo not drawn) [Example 127, tert-Butyl 4-(4-{2-[6-chloro-3-(4-methoxybenzenesulfonyl)-2-oxo-2,3-dihydrobenzimidazol-1-yl]-2-phenylacetyl}piperazin-1-yl)piperidin-1-carboxylate] | 0.5 to 10
13 | CCCN1CCC(N2CCN(C(=O)C(c3ccccc3)n3c(=O)n(S(=O)(=O)c4ccc(OC)cc4)c4ccc(Cl)cc43)CC2)CC1 (stereo not drawn) [Example 129, 5-Chloro-1-(4-methoxybenzenesulfonyl)-3-{2-oxo-1-phenyl-2-[4-(1-propylpiperidin-4-yl)piperazin-1-yl]ethyl}-1,3-dihydrobenzimidazol-2-one] | 0.1 to 0.5
14 | COc1ccc(S(=O)(=O)n2c(=O)n(C(C(=O)NCCN3CCN(C(=O)OC(C)(C)C)CC3)c3ccccc3)c3cc(Cl)ccc32)cc1 (stereo not drawn) [Example 130, tert-Butyl 4-(2-{2-[6-chloro-3-(4-methoxybenzenesulfonyl)-2-oxo-2,3-dihydrobenzimidazol-1-yl]-2-phenylacetylamino}ethyl)piperazine-1-carboxylate] | 0.5 to 10
15 | COc1ccc(S(=O)(=O)n2c(=O)n(C(C(=O)NCCN3CCNCC3)c3ccccc3)c3cc(Cl)ccc32)cc1 (stereo not drawn) [Example 131, 2-[6-Chloro-3-(4-methoxybenzenesulfonyl)-2-oxo-2,3-dihydrobenzimidazol-1-yl]-2-phenyl-N-(2-piperazin-1-ylethyl)acetamide] | 0.1 to 0.5
16 | CCCN1CCN(CCNC(=O)C(c2ccccc2)n2c(=O)n(S(=O)(=O)c3ccc(OC)cc3)c3ccc(Cl)cc32)CC1 (stereo not drawn) [Example 133, 2-[6-Chloro-3-(4-methoxybenzenesulfonyl)-2-oxo-2,3-dihydrobenzimidazol-1-yl]-2-phenyl-N-[2-(4-propylpiperazin-1-yl)-ethyl]-acetamide] | 0.1 to 0.5
17 | COc1ccc(S(=O)(=O)n2c(=O)n(C(C(=O)NCCCN3CCNCC3)c3ccccc3)c3cc(Cl)ccc32)cc1 (stereo not drawn) [Example 135, 2-[6-Chloro-3-(4-methoxybenzenesulfonyl)-2-oxo-2,3-dihydrobenzimidazol-1-yl] 2-phenyl-N-(3-piperazin-1-ylpropyl)acetamide] | 0.1 to 0.5
18 | CCCN1CCN(CCCNC(=O)C(c2ccccc2)n2c(=O)n(S(=O)(=O)c3ccc(OC)cc3)c3ccc(Cl)cc32)CC1 (stereo not drawn) [Example 136, 2-[6-Chloro-3-(4-methoxybenzenesulfonyl)-2-oxo-2,3-dihydrobenzimidazol-1-yl]-2-phenyl-N-[3-(4-propylpiperazin-1-yl)propyl]-acetamide] | 0.1 to 0.5
19 | COc1ccc(S(=O)(=O)n2c(=O)n(C(C(=O)NCCCN3CCN(C)CC3)c3ccccc3)c3cc(Cl)ccc32)cc1 (stereo not drawn) [Example 137, 2-[6-Chloro-3-(4-methoxybenzenesulfonyl)-2-oxo-2,3-dihydrobenzimidazol-1-yl]-N-[3-(4-methylpiperazin-1-yl)propyl]-2-phenyl-acetamide] | 0.1 to 0.5
20 | COc1ccc(S(=O)(=O)n2c(=O)n(C(C(=O)N3CCCC(N4CCN(Cc5ccccc5)CC4)C3)c3ccccc3)c3cc(Cl)ccc32)cc1 (stereo not drawn) [Example 139, 3-{2-[3-(4-Benzylpiperazin-1-yl)piperidin-1-yl]-2-oxo-1-phenylethyl}-5-chloro-1-(4-methoxybenzenesulfonyl)-1,3-dihydrobenzimidazol-2-one] | < 0.1
21 | COc1ccc(S(=O)(=O)n2c(=O)n(C(C(=O)N3CC[C@H](N4CCN(Cc5ccccc5)CC4)C3)c3ccccc3)c3cc(Cl)ccc32)cc1 (stereo partly drawn) [Example 140, 3-{2-[(S)-3-(4-Benzylpiperazin-1-yl)pyrrolidin-1-yl]-2-oxo-1-phenylethyl}-5-chloro-1-(4-methoxybenzenesulfonyl)-1,3-dihydrobenzimidazol-2-one] | < 0.1
22 | COc1ccc(S(=O)(=O)n2c(=O)n(C(C(=O)N3CCC(N4CCN(Cc5ccccc5)CC4)C3)c3ccccc3)c3cc(Cl)ccc32)cc1 (stereo not drawn) [Example 141, 3-{2-[3-(4-Benzylpiperazin-1-yl)-pyrrolidin-1-yl]-2-oxo-1-phenylethyl}-5-chloro-1-(4-methoxybenzenesulfonyl)-1,3-dihydrobenzimidazol-2-one] | < 0.1
23 | COc1ccc(S(=O)(=O)n2c(=O)n(C(C(=O)N3CC[C@@H](N4CCN(Cc5ccccc5)CC4)C3)c3ccccc3)c3cc(Cl)ccc32)cc1 (stereo partly drawn) [Example 142, 3-{2-[(R)-3-(4-Benzylpiperazin-1-yl)-pyrrolidin-1-yl]-2-oxo-1-phenylethyl}-5-chloro-1-(4-methoxybenzenesulfonyl)-1,3-dihydrobenzimidazol-2-on] | 0.1 to 0.5
24 | COc1ccc(S(=O)(=O)n2c(=O)n(C(C(=O)N3CC[C@H](N4CCN(Cc5ccccc5)CC4)C3)c3ccccc3)c3cc(C#N)ccc32)cc1 (stereo partly drawn) [Example 143, 3-{2-[(S)-3-(4-Benzylpiperazin-1-yl)-pyrrolidin-1-yl]-2-oxo-1-phenylethyl}-1-(4-methoxybenzenesulfonyl)-2-oxo-2,3-dihydro-1H-benzimidazole-5-carbonitrile] | < 0.1
